Reference: US20260167641A1, “CRYSTAL FORM OF IMIDAZOPYRAZINE DERIVATIVE, PREPARATION METHOD THEREFOR AND USE THEREOF” (TRANSTHERA SCIENCES (NANJING), INC., priority 2022, published 2026)

Legend:
Long-term stability test = assay type: physicochemical
Experimental: The samples were stored under the conditions of 25° C./60% RH (relative humidity) and 30° C./65% RH (relative humidity), respectively, and then collected at 1M, 2M, 3M, 6M, 9M, 12M, and 18M. Additionally, the samples were stored under the conditions of 40° C./75% RH (relative humidity) and then collected at 1M, 2M, 3M, and 6M. The appearance, total impurities, content, moisture, and crystal form changes (at 3M, 6M, and 12M) were examined and compared with the results on day 0.

[1] = Pharmacokinetic evaluation test in rats; assay type: in vivo, SD rats; settings: p.o. 100 mg/kg
Experimental: • Animals: male SD rats • Animal administration and sample collection: Crystal forms I, II, and III were each dissolved in a mixture of 20% PEG400+80% (20% Captisol in 0.5% MC) to prepare administration formulation suspensions. The administration formulations were intragastrically administered to the SD rats at a dose of 100 mg/kg. Blood samples were collected at time points of 15 min, 30 min, 1 h, 2 h, 4 h, 6 h, 8 h, 24 h, 48 h, 72 h, and […] after administration.
One day before administration, the animals underwent jugular vein catheterization. After administration, about 300 μL of blood samples were collected via the jugular vein and then placed into anticoagulation tubes containing EDTA-K2. The blood samples were centrifuged at 4° C. and 8000 rpm for 10 min to yield plasma samples, which were prepared within 30 min after blood sample collection. The plasma samples were stored in a refrigerator at −80° C. before tests.
The samples to be tested were taken out from the refrigerator at −80° C., naturally thawed at room temperature, and then vortexed for 5 min. 20 μL of each of the 20-fold diluted plasma samples was precisely pipetted into a 1.5 mL centrifuge tube, and 300 μL of an internal standard working solution at a concentration of 10 ng/mL was added. The mixture was uniformly mixed, vortexed for 5 min, and then centrifuged at 12000 rpm for 5 mun.
50 μL of the supernatant was precisely pipetted into a 96-well plate to which water was added at 150 μL/well in advance, uniformly mixed by vortexing for 5 min, and analyzed by LC-MS/MS.
The sample to be tested was taken out from the refrigerator at −80° C., naturally thawed at room temperature, and then vortexed for 5 min. 2 μL of the plasma sample was precisely pipetted and then added, together with 28 μL of blank plasma, to a 1.5 mL centrifuge tube, and 450 μL of an internal standard working solution (a solution of tolbutamide in acetonitrile) at a concentration of 100 ng/mL was added. The mixture was uniformly mixed, vortexed for 5 min, and then centrifuged at 12000 rpm for 5 min. 50 μL of the supernatant was precisely pipetted into a 96-well plate to which water was added at 150 μL/well in advance, uniformly mixed by vortexing for 5 min, and analyzed by LC-MS/MS.
The test compound concentrations were output by Analyst 1.7.1 of AB Sciex. Parameters such as mean, standard deviation, and coefficient of variation were calculated by Microsoft Excel. PK parameters were calculated by Pharsight Phoenix 8.2 software NCA (Tmax was in median).

[2] = male SD rats, mean, n = 3, 100 mg/kg

- Appearance (Long-term stability test; 0 day): Yellow solid
- Content % (Long-term stability test; 0 day): 98.3%
- Crystal form XRPD (Long-term stability test; 0 day): Crystal form II
- Moisture % (Long-term stability test; 0 day): 0.23%
- Total impurities % (Long-term stability test; 0 day): 1.1%
- Changes in appearance, total impurities, content, and moisture (Long-term stability test; 6 months at 40° C./75% RH, 18 months at 25° C./60% RH and 30° C./65% RH): no significant changes
- Appearance (Long-term stability test; 25° C./60% RH, 1M): Yellow solid
- Content % (Long-term stability test; 25° C./60% RH, 1M): 98.2%
- Moisture % (Long-term stability test; 25° C./60% RH, 1M): 0.28%
- Total impurities % (Long-term stability test; 25° C./60% RH, 1M): 1.1%
- Appearance (Long-term stability test; 25° C./60% RH, 2M): Yellow solid
- Content % (Long-term stability test; 25° C./60% RH, 2M): 98.3%
- Moisture % (Long-term stability test; 25° C./60% RH, 2M): 0.16%
- Total impurities % (Long-term stability test; 25° C./60% RH, 2M): 1.2%
- Appearance (Long-term stability test; 25° C./60% RH, 3M): Yellow solid
- Content % (Long-term stability test; 25° C./60% RH, 3M): 98.4%
- Crystal form XRPD (Long-term stability test; 25° C./60% RH, 3M): Crystal form II
- Moisture % (Long-term stability test; 25° C./60% RH, 3M): 0.24%
- Total impurities % (Long-term stability test; 25° C./60% RH, 3M): 1.1%
- Appearance (Long-term stability test; 25° C./60% RH, 6M): Yellow solid
- Content % (Long-term stability test; 25° C./60% RH, 6M): 98.2%
- Crystal form XRPD (Long-term stability test; 25° C./60% RH, 6M): Crystal form II
- Moisture % (Long-term stability test; 25° C./60% RH, 6M): 0.16%
- Total impurities % (Long-term stability test; 25° C./60% RH, 6M): 1.1%
- Appearance (Long-term stability test; 25° C./60% RH, 9M): Yellow solid
- Content % (Long-term stability test; 25° C./60% RH, 9M): 98.5%
- Moisture % (Long-term stability test; 25° C./60% RH, 9M): 0.23%
- Total impurities % (Long-term stability test; 25° C./60% RH, 9M): 1.1%
- Appearance (Long-term stability test; 25° C./60% RH, 12M): Yellow solid
- Content % (Long-term stability test; 25° C./60% RH, 12M): 98.2%
- Crystal form XRPD (Long-term stability test; 25° C./60% RH, 12M): Crystal form II
- Moisture % (Long-term stability test; 25° C./60% RH, 12M): 0.12%
- Total impurities % (Long-term stability test; 25° C./60% RH, 12M): 1.1%
- Appearance (Long-term stability test; 25° C./60% RH, 18M): Yellow solid
- Content % (Long-term stability test; 25° C./60% RH, 18M): 98.9%
- Moisture % (Long-term stability test; 25° C./60% RH, 18M): 0.24%
- Total impurities % (Long-term stability test; 25° C./60% RH, 18M): 1.1%
- Appearance (Long-term stability test; 30° C./65% RH, 1M): Yellow solid
- Content % (Long-term stability test; 30° C./65% RH, 1M): 98.2%
- Moisture % (Long-term stability test; 30° C./65% RH, 1M): 0.24%
- Total impurities % (Long-term stability test; 30° C./65% RH, 1M): 1.1%
- Appearance (Long-term stability test; 30° C./65% RH, 2M): Yellow solid
- Content % (Long-term stability test; 30° C./65% RH, 2M): 97.9%
- Moisture % (Long-term stability test; 30° C./65% RH, 2M): 0.19%
- Total impurities % (Long-term stability test; 30° C./65% RH, 2M): 1.2%
- Appearance (Long-term stability test; 30° C./65% RH, 3M): Yellow solid
- Content % (Long-term stability test; 30° C./65% RH, 3M): 98.2%
- Crystal form XRPD (Long-term stability test; 30° C./65% RH, 3M): Crystal form II
- Moisture % (Long-term stability test; 30° C./65% RH, 3M): 0.30%
- Total impurities % (Long-term stability test; 30° C./65% RH, 3M): 1.1%
- Appearance (Long-term stability test; 30° C./65% RH, 6M): Yellow solid
- Content % (Long-term stability test; 30° C./65% RH, 6M): 98.1%
- Crystal form XRPD (Long-term stability test; 30° C./65% RH, 6M): Crystal form II
- Moisture % (Long-term stability test; 30° C./65% RH, 6M): 0.13%
- Total impurities % (Long-term stability test; 30° C./65% RH, 6M): 1.1%
- Appearance (Long-term stability test; 30° C./65% RH, 9M): Yellow solid
- Content % (Long-term stability test; 30° C./65% RH, 9M): 98.4%
- Moisture % (Long-term stability test; 30° C./65% RH, 9M): 0.24%
- Total impurities % (Long-term stability test; 30° C./65% RH, 9M): 1.1%
- Appearance (Long-term stability test; 30° C./65% RH, 12M): Yellow solid
- Content % (Long-term stability test; 30° C./65% RH, 12M): 98.2%
- Crystal form XRPD (Long-term stability test; 30° C./65% RH, 12M): Crystal form II
- Moisture % (Long-term stability test; 30° C./65% RH, 12M): 0.13%
- Total impurities % (Long-term stability test; 30° C./65% RH, 12M): 1.1%
- Appearance (Long-term stability test; 30° C./65% RH, 18M): Yellow solid
- Content % (Long-term stability test; 30° C./65% RH, 18M): 99.0%
- Moisture % (Long-term stability test; 30° C./65% RH, 18M): 0.17%
- Total impurities % (Long-term stability test; 30° C./65% RH, 18M): 1.1%
- Content % (Long-term stability test; 40° C./75% RH, 1M): 98.0%
- Appearance (Long-term stability test; 40° C./75% RH, 2M): Yellow solid
- Content % (Long-term stability test; 40° C./75% RH, 2M): 97.9%
- Moisture % (Long-term stability test; 40° C./75% RH, 2M): 0.18%
- Total impurities % (Long-term stability test; 40° C./75% RH, 2M): 1.2%
- Appearance (Long-term stability test; 40° C./75% RH, 3M): Yellow solid
- Content % (Long-term stability test; 40° C./75% RH, 3M): 98.1%
- Crystal form XRPD (Long-term stability test; 40° C./75% RH, 3M): Crystal form II
- Moisture % (Long-term stability test; 40° C./75% RH, 3M): 0.24%
- Total impurities % (Long-term stability test; 40° C./75% RH, 3M): 1.1%
- Appearance (Long-term stability test; 40° C./75% RH, 6M): Yellow solid
- Content % (Long-term stability test; 40° C./75% RH, 6M): 98.3%
- Crystal form XRPD (Long-term stability test; 40° C./75% RH, 6M): Crystal form II
- Moisture % (Long-term stability test; 40° C./75% RH, 6M): 0.13%
- Total impurities % (Long-term stability test; 40° C./75% RH, 6M): 1.1%
- Appearance (Long-term stability test; 40° C./75% RH, ^ IM): Yellow solid
- Moisture % (Long-term stability test; 40° C./75% RH, ^ IM): 0.24%
- Total impurities % (Long-term stability test; 40° C./75% RH, ^ IM): 1.1%
- Pharmacokinetic properties ([1]; SD rats): very good pharmacokinetic properties
- AUCinf—obs [1, 2]: 2545.383 µg·h/mL
- AUClast [1, 2]: 2515.536 µg·h/mL
- Cmax ([1]; male, SD, rat, plasma, po, 100 mg/kg, male SD rats, mean, n = 3, read-out: Cmax): 145 µg/mL
- half-life ([1]; male, SD, rat, plasma, po, 100 mg/kg, male SD rats, mean, n = 3, read-out: tz1/2 (terminal half-life) (converted)): 7.74 h
- Tmax ([1]; male, SD, rat, plasma, po, 100 mg/kg, male SD rats, n = 3, Tmax in median, read-out: Tmax): 2 h
Structure (SMILES): Nc1nccn2c(C34CCC(NC(=O)CN5CCOCC5)(CC3)C4)nc(-c3ccc(C(=O)Nc4cc(C(F)(F)F)ccn4)cc3)c12 (single isomer, unassigned) [Crystal form II, 4-(8-amino-3-(4-(2-morpholinoacetamido)bicyclo[2.2.1]heptan-1-yl)imidazo[1,5-a]pyrazin-1-yl)-N-(4-(trifluoromethyl)pyridin-2-yl)benzamide]
